Common to all, as to type: in vivo, Kunming mice
Data set [1] is described as follows: Pharmacokinetics of GQD constituents in the portal vein of mice after oral GQD. Conditions: for AUC(0-t): read-out: AUC0–24 h. Here is the method: (§1) Fifty-four Kunming mice were randomly divided into nine groups according to body weight and gender (3 male and three female in each group). Each group was orally administered with water solution (0.2 ml/10 g body weight) of the GQD extract powder at the dosage of 6.1 g/kg body weight. The dosage of GQD extract powder equals to 18 g/kg herbal pieces of GQD, which is equivalent to its clinical dosage. At each designed time point (0.08, 0.25, 0.5, 1, 2, 4, 8, 12, and 24 h) after oral administration, six mice were anesthetized with ether, and blood was collected from the portal vein (about 0.2 ml, aspirated in a 1 ml heparinized syringe) and then the systemic circulation (about 0.2 ml, collected in heparinized tubes after removal of the eyeball) of the mice to prepare plasma samples, and the livers and the colons were removed to prepare respective homogenate. After pretreatment, the concentrations of 19 major constituents of GQD in each sample were measured by the validated LC-MS/MS method (see “2.3”). Then the C-T curves of the constituents in the plasma and the tissue homogenates were respectively drawn and their pharmacokinetic parameters were respectively calculated.
(§2) It should be noted that the pharmacokinetic parameters of a GQD constituent was calculated based on its average concentration in six mice at each time point. The results were expressed as mean ± SD.

Data set [2] in a line: Pharmacokinetics of GQD constituents in the systemic circulation of mice after oral GQD. Conditions: for Cmax / MRT / AUC(0-t): oral GQD 6.1 g/kg; for AUC(0-t): read-out: AUC0–24 h. As for the experimental part:
as §1, §2

A short description of data set [3]: Pharmacokinetics/tissue distribution of GQD constituents in the livers of mice after oral GQD. Conditions: for Kp: both sexes. As for the experimental part: (§3) The liver and the colon homogenates were prepared with 10 times (V: W) the volume of ascorbic acid solution (200 μg/ml). Then the homogenates were pretreated as plasma to obtain the tissue samples for LC-MS/MS analysis. Fifty-four Kunming mice were randomly divided into nine groups according to body weight and gender (3 male and three female in each group). […] Then the C-T curves of the constituents in the plasma and the tissue homogenates were respectively drawn and their pharmacokinetic parameters were respectively calculated. […] It should be noted that the pharmacokinetic parameters of a GQD constituent was calculated based on its average concentration in six mice at each time point. The results were expressed as mean ± SD.

The nature of data set [4]: Pharmacokinetics/tissue distribution of GQD constituents in the colons of mice after oral GQD. Here is the method:
as §3

Where [5] appears, read: both, Kunming, mouse, portal vein plasma, po, […], portal vein plasma, mice, oral GQD extract […], read-out: Tmax.
The mark [6] stands for this setting: both, Kunming, mouse, portal vein plasma, mice, oral GQD extract 6.1 g/kg.
Where [7] appears, read: both, Kunming, mouse, portal vein plasma, mice, oral GQD extract 6.1 g/kg, read-out: T1/2 (converted).
Setting [8] is: both, Kunming, mouse, systemic circulation plasma, po, […], systemic circulation plasma, mice, oral GQD […], read-out: T1/2 (converted).
Setting [9] is: both, Kunming, mouse, systemic circulation plasma, po, […], systemic circulation plasma, mice, oral GQD […], read-out: Tmax.
Setting [10] is: both, Kunming, mouse, systemic circulation plasma, mice.
Where [11] appears, read: systemic circulation plasma, mice, oral GQD […].
[12] abbreviates: both, Kunming, mouse, liver (homogenate), po, […], liver, mice, oral GQD extract […], read-out: T1/2 (converted).
[13] abbreviates: both, Kunming, mouse, liver (homogenate), liver, mice, oral GQD extract 6.1 g/kg.
[14] abbreviates: both, Kunming, mouse, liver (homogenate), liver, mice, oral GQD extract 6.1 g/kg, read-out: Tmax.
[15] abbreviates: liver, mice, oral GQD extract […].
The mark [16] stands for this setting: both, Kunming, mouse, colon (homogenate), po, […], colon, mice, oral GQD extract […], read-out: T1/2 (converted).
The mark [17] stands for this setting: both, Kunming, mouse, colon (homogenate), colon, mice, oral GQD extract 6.1 g/kg.
Where [18] appears, read: both, Kunming, mouse, colon (homogenate), colon, mice, oral GQD extract 6.1 g/kg, read-out: Tmax.
Setting [19] is: colon, mice, oral GQD extract […].
The mark [20] stands for this setting: both, Kunming, mouse, in vivo, po, […].
[21] abbreviates: both, Kunming, mouse, in vivo, po, […], Tmax.
Where [22] appears, read: both, Kunming, mouse, in vivo, po, […], T1/2.
Setting [23] is: portal vein plasma, mice, oral GQD extract […].

Marks after values point to notes of the source that are not given here.

For the compound `CC1(C)[C@@H](O)CC[C@]2(C)[C@H]3C(=O)C=C4[C@@H]5C[C@@](C)(C(=O)O)CC[C@]5(C)CC[C@@]4(C)[C@]3(C)CC[C@@H]12` [Glycyrrhetinic acid, glycyrrhetinic acid], the Tmax in data set [1] (setting [5]), in data set [2] (setting [9]), in data set [3] (setting [14]) and in data set [4] (setting [18]) was 4 h in each case. Further, the Cmax in data set [1] (setting [6]) is 0.643 µg/mL; in data set [2] (setting [10]), 0.196 µg/mL; in data set [3] (setting [13]) it was 910 ng/g; in data set [4] (setting [17]), 1830 ng/g. Moreover, the MRT amounted to 7 h in data set [1] (setting [6]), 8.4 h in data set [2] (setting [10]), 8.6 h in data set [3] (setting [13]) and 7 h in data set [4] (setting [17]). Further, the AUC(0-t) in data set [1] (setting [6]) came out at 5.33 µg·h/mL; in data set [2] (setting [10]), 2.12 µg·h/mL. Moreover, the half-life in data set [1] (setting [7]) is 4.7 h; in data set [2] (setting [8]), approximately 6 h; in data set [3] (setting [12]), 6 to 7 h; in data set [4] (setting [16]), 4 to 5 h. Also, the T1/2 is 6.2# h in data set [2] (setting [11]), 6.6# h in data set [3] (setting [15]) and 4.4 h in data set [4] (setting [19]).
Regarding `COc1cc2c(cc1O)CC[n+]1cc3c(OC)c(OC)ccc3cc1-2` [Jatrorrhizine, jatrorrhizine], the Tmax was 4 h in data set [1] (setting [5]), 0.08 h in data set [2] (setting [9]), 4 h in data set [3] (setting [14]) and 4 h in data set [4] (setting [18]). Also, the Cmax was 0.0166 µg/mL in data set [1] (setting [6]), 0.0101 µg/mL in data set [2] (setting [10]), 136 ng/g in data set [3] (setting [13]) and 2100 ng/g in data set [4] (setting [17]). The MRT in data set [1] (setting [6]) was 4.8 h; in data set [2] (setting [10]), 3.9 h; in data set [3] (setting [13]), 6.6 h; in data set [4] (setting [17]) it was 6.2 h. Further, the results for the AUC(0-t) in data set [1] (setting [6]) and in data set [2] (setting [10]) were 0.116 µg·h/mL and 0.0263 µg·h/mL, respectively. In addition, the half-life is 6.3 h in data set [1] (setting [7]), 4.3 h in data set [2] (setting [8]), 2.4 h in data set [3] (setting [12]) and 5 h in data set [4] (setting [16]).
In the case of `O=C1C[C@@H](c2ccc(O[C@@H]3O[C@H](CO)[C@@H](O)[C@H](O)[C@H]3O)cc2)Oc2cc(O)ccc21` [Liquiritin, liquiritin], the half-life is 2.5 h in data set [1] (setting [20]), 1.5 h in data set [2] (setting [22]), 19.7 h in data set [3] (setting [22]) and 19.5 h in data set [4] (setting [22]). Further, the Tmax in data set [1] (setting [21]) is 0.25 h; in data set [2] (setting [21]) it was 0.25 h; in data set [3] (setting [20]) it was 4 h; in data set [4] (setting [20]), 0.5 h. Besides, the Kp in data set [3] (Kunming, mouse, in vivo, po, AUC0–24 h liv/AUC0–24 h cir) was approximately 5; in data set [3] (Kunming, mouse, in vivo, po, AUC0–24 h liv/AUC0–24 h por), 2.4. In addition, in data set [3] (both, Kunming, mouse, in vivo, po), the “AUC0–24 h liv/AUC0–24 h cir” value amounted to 5.1.
For the compound `COc1ccc2c(c1O)-c1c(O)c(OC)cc3c1[C@H](C2)[N+](C)(C)CC3` [Magnoflorine, magnoflorine], the Tmax in data set [1] (setting [5]) stood at 0.25 h; in data set [2] (setting [9]), 0.5 h; in data set [3] (setting [14]), 0.25 h; in data set [4] (setting [18]), 4 h. For the same compound, the Cmax in data set [1] (setting [6]) was 0.0383 µg/mL; in data set [2] (setting [10]), 0.0224 µg/mL; in data set [3] (setting [13]), 53.4 ng/g; in data set [4] (setting [17]), 2150 ng/g. Further, the MRT worked out at 2.6 h in data set [1] (setting [6]), 2.6 h in data set [2] (setting [10]), 5.3 h in data set [3] (setting [13]) and 5 h in data set [4] (setting [17]). For the same compound, the AUC(0-t) in data set [1] (setting [6]) amounted to 0.161 µg·h/mL; in data set [2] (setting [10]), 0.0949 µg·h/mL. In addition, the half-life in data set [1] (setting [7]) was 1.2 h; in data set [2] (setting [8]), 1.9 h; in data set [3] (setting [12]), 5.3 h; in data set [4] (setting [16]), 2.1 h.
Consider `COc1cc2c(cc1OC)-c1cc3ccc(OC)c(OC)c3c[n+]1CC2` [Palmatine, palmatine], for which the T1/2 in data set [1] (setting [23]) is 3.0 h; in data set [2] (setting [11]) it was 7.2 h; in data set [3] (setting [15]) it was 4.6 h; in data set [4] (setting [19]) it was 3.8 h. Further, the Tmax in data set [1] (setting [23]) worked out at 4.0 h; in data set [2] (setting [11]) it was 1.0 h; in data set [3] (setting [15]), 2.0 h; in data set [4] (setting [19]), 4.0 h.

Broadly, the Tmax is the time from dosing to the highest level. The Cmax is the maximum level reached in the sampled fluid or tissue. As usually defined, the MRT is the average time that molecules of a dose stay in the body.

The values above are taken from PMC9592910, “Tissue distribution and integrated pharmacokinetic properties of major effective constituents of oral Gegen-Qinlian decoction in mice” (Frontiers in Pharmacology, 2022).
